{"source": "paper PMC8408635", "about": "(The Journal of Biological Chemistry, 2021)", "test_system": "PniDAH7PS", "conditions": "read-out: CM activity / KM, 50 mM BTP pH 7.4, 35 °C"}
{"smiles": "C=C(O[C@@H]1C=C(C(=O)O)C=C[C@H]1O)C(=O)O", "note": "[chorismate]", "values": [{"measurement": "Km", "result": "21 ± 2", "unit": "µM"}]}
